Assay results from patent US4510136A (priority 1983, dated 1985).

Legend:
Assay type in all cases: in vivo
Helminthosporium maydis = test: Southern corn leaf blight control on sprayed corn seedlings (Example 83); conditions: 100 ppm spray, day before inoculation; for pest or weed control at 100 ppm: Bipolaris maydis, 192 h
Protocol: The compounds of the previous examples were again dissolved in acetone in an amount equal to 6% of the final volume and then suspended at a concentration of 100 ppm in purified water containing 250 ppm of the surfactant TREM 014 (polyhydric alcohol esters). These suspensions were sprayed to the point of run-off on corn seedlings. The following day, the plants were inoculated with a spore suspension of Helminthosporium maydis, causal agent of southern corn leaf blight, and incubated in a saturated humidity chamber at 20° for 24 hours and then in a growth room for an additional 7 days, when disease ratings were made. Treated plants from successful treatments had few or no lesions while the untreated plants had numerous lesions on each leaf. Phytotoxicity expressed as growth reduction was observed on some of the plants in association with disease control.

[1] = system: Puccinia recondita var. tritici; test: Wheat leaf rust control on sprayed wheat seedlings (Example 79); conditions: 100 ppm spray, day before inoculation; for pest or weed control at 100 ppm: Puccinia recondita, 168 h
Protocol: The compounds of this invention were dissolved in acetone in an amount equal to 6% of the final volume and then suspended at a concentration of 100 ppm in purified water containing 250 ppm of the surfactant TREM 014 (polyhydric alcohol esters). These suspensions were sprayed to the point of run-off on wheat seedlings. The following day, the plants were inoculated with a spore suspension of Puccinia recondita var. tritici, causal agent of wheat leaf rust, and incubated in a saturated humidity chamber at 20° for 24 hours and then in a growth room for an additional 7 days, when disease ratings were made. Treated plants from successful treatments had few or no rust pustules while the untreated plants had numerous rust pustules on each leaf.

cucumber seedlings = test: Phytotoxicity on cucumber seedlings (Example 80); set-up: key: G = growth reduction; H = hormonal effects; conditions: 100 ppm spray
Protocol: (§1) The compounds of the previous example were again dissolved in acetone in an amount equal to 6% of the final volume and then suspended at a concentration of 100 ppm in purified water containing 250 ppm of the surfactant TREM 014 (polyhydric alcohol esters). These suspensions were sprayed to the point of run-off, on cucumber seedlings. The following day, the plants were inoculated with a spore suspension of the fungus Erysiphe cichoracearum, causal agent of cucumber powdery mildew, and incubated in a growth room for 7 days. Disease ratings were then made. Treated plants from successful treatments had little or no powdery mildew in contrast to untreated plants which were covered with powdery mildew. Phytotoxicity in the form of growth reduction or hormonal effects was observed on some of the plants in association with disease control.

Erysiphe cichoracearum = test: Cucumber powdery mildew control on sprayed cucumber seedlings (Example 80); conditions: 100 ppm spray, day before inoculation; for pest or weed control at 100 ppm: Golovinomyces cichoracearum, 168 h
Protocol: as §1, with “These” for “The compounds of the previous example were again dissolved in acetone in an amount equal to 6% of the final volume and then suspended at a concentration of 100 ppm in purified water containing 250 ppm of the surfactant TREM 014 (polyhydric alcohol esters). These”

Venturia inaequalis = test: Apple scab control on sprayed apple seedlings (Example 82); conditions: 100 ppm spray, day before inoculation; for pest or weed control at 100 ppm: Venturia inaequalis
Protocol: These suspensions were sprayed to the point of run-off on apple seedlings. The following day, the plants were inoculated with a spore suspension of the fungus Venturia inaequalis, causal agent of apple scab, and incubated in a saturated humidity chamber at 20° for 24 hours and then in a growth room for an additional 10-12 days. Treated plants from successful treatments had fewer apple scab lesions when compared to untreated plants which were covered with scab lesions. Phytotoxicity expressed as growth reduction was observed on some of the plants in association with disease control.

Cercospora arachidicola = test: Peanut early leafspot control on sprayed peanut seedlings (Example 84); conditions: 100 ppm spray, day before inoculation; for pest or weed control at 100 ppm: Mycosphaerella arachidis, 360 h, read-out: % Control Peanut Easly Leafspot
Protocol: These suspensions were sprayed to the point of run-off on peanut seedlings. The following day, the plants were inoculated with a spore suspension of Cercospora arachidicola, causal agent of peanut early leafspot, and incubated in a saturated humidity chamber at 27° for 24 hours and then in a growth room for an additional 14 days, when disease ratings were made. Treated plants from successful treatments had few or no leafspots while the untreated plants had numerous leafspots.

Rhizoctonia solani = test: Rice sheath blight control on sprayed rice seedlings (Example 87); conditions: 100 ppm spray, day before inoculation; for pest or weed control at 100 ppm: Rhizoctonia solani, 168 h
Protocol: The compounds of the previous examples were again dissolved in acetone in an amount equal to 6% of the final volume and then suspended at a concentration of 100 ppm in purified water containing 250 ppm of the surfactant TREM 014 (polyhydric alcohol esters). This suspension was sprayed to the point of run-off on rice seedlings. The following day, the plants were inoculated with a mixture of bran and the mycelium of Rhizoctonia solani, causal agent of sheath blight of rice, and incubated in a growth room for 7 days. Disease ratings were then made. Treated plants from successful treatments had little sheath blight in contrast to untreated plants which were covered with sheath blight.

Pyricularia oryzae = test: whole plant or invertebrate; conditions: for pest or weed control at 100 ppm: Pyricularia oryzae, 168 h, read-out: % Control of Rice Blast, 100 ppm spray, day before inoculation; for % Control of Rice Blast: 100 ppm spray, day before inoculation
Phytophthora infestans = test: whole plant or invertebrate; conditions: for pest or weed control at 100 ppm: Phytophthora infestans, in Solanum lycopersicum, 168 h, read-out: % Control of Tomato Late Blight, 100 ppm spray, day before inoculation; for % Control of Tomato Late Blight: 100 ppm spray, day before inoculation

Compound | pest or weed control at 100 ppm (Helminthosporium maydis) [%] | pest or weed control at 100 ppm [1] [%] | Phytotoxicity on cucumber (cucumber seedlings) | pest or weed control at 100 ppm (Erysiphe cichoracearum) [%] | pest or weed control at 100 ppm (Venturia inaequalis) [%] | pest or weed control at 100 ppm (Cercospora arachidicola) [%] | pest or weed control at 100 ppm (Rhizoctonia solani) [%] | pest or weed control at 100 ppm (Pyricularia oryzae) [%] | pest or weed control at 100 ppm (Phytophthora infestans) [%] | % Control of Southern Corn Leaf Blight (Helminthosporium maydis) [%] | % Control Wheat Rust [1] [%] | % Control Cucumber Powdery Mildew (Erysiphe cichoracearum) [%] | % Control Apple Scab (Venturia inaequalis) [%] | % Control Peanut Easly Leafspot (Cercospora arachidicola) [%] | % Control of Rice Sheath Blight (Rhizoctonia solani) [%] | % Control of Rice Blast (Pyricularia oryzae) [%] | % Control of Tomato Late Blight (Phytophthora infestans) [%]
COc1cccc([Si](C)(C)Cn2cncn2)c1OC [(2,3-Dimethoxyphenyl)dimethyl(1H-1,2,4-triazol-1-ylmethyl)silane] | 0 | 0 | G | 100 | 0 | 0 | 0 | 0 | 0 |  |  |  |  |  |  |  | 
COc1cccc(OC)c1[Si](C)(C)Cn1cncn1 [(2,6-Dimethoxyphenyl)dimethyl(1H-1,2,4-triazol-1-ylmethyl)silane] | 0 | 0 | G | 100 | 0 | 0 | 0 | 0 | 0 |  |  |  |  |  |  |  | 
C[Si](C)(Cn1cncn1)c1ccccc1Cl [(2-Chlorophenyl)dimethyl(1H-1,2,4-triazol-1-ylmethyl)silane] |  | 0 | G |  |  |  | 0 | 100 | 0 |  |  |  |  |  |  |  | 
COc1ccccc1[Si](C)(C)Cn1cncn1 [(2-Methoxyphenyl)dimethyl(1H-1,2,4-triazol-1-ylmethyl)silane] | 70 | 0 | G | 100 | 80 | 0 | 0 | 0 | 0 |  |  |  |  |  |  |  | 
C[Si](C)(Cn1cncn1)C1CCCCC1 [Cyclohexyl(dimethyl)(1H-1,2,4-triazol-1-ylmethyl)silane] | 50 | 0 | G | 100 | 0 | 0 | 0 |  | 0 |  |  |  |  |  |  |  | 
C[Si](C)(Cn1cncn1)c1ccc(C(F)(F)F)cc1 [Dimethyl(1H-1,2,4-triazol-1-ylmethyl)(4-trifluoromethylphenyl)silane] | 50 | 0 | G | 100 | 0 | 0 | 0 | 0 | 0 |  |  |  |  |  |  |  | 
C[Si](C)(Cn1cncn1)c1ccc(OC(F)(F)F)cc1 [Dimethyl(4-trifluoromethoxyphenyl)(1H-1,2,4-triazol-1-ylmethyl)silane] | 80 | 100 | G | 100 | 90 | 50 | 0 | 0 | 0 |  |  |  |  |  |  |  | 
C[Si](Cn1cncn1)(c1ccc(Br)cc1)c1ccc(Br)cc1 [[bis(4-Bromophenyl)]methyl(1H-1,2,4-triazol-1-ylmethyl)silane] | 0 | 0 | G | 80 | 80 | 100 | 0 | 90 | 0 |  |  |  |  |  |  |  | 
COc1ccc([Si](C)(Cn2cncn2)c2ccc(OC)cc2)cc1 [[bis(4-Methoxyphenyl)]methyl(1H-1,2,4-triazol-1-ylmethyl)silane] | 90 | 0 |  | 0 | 0 | 30 | 80 | 0 | 0 |  |  |  |  |  |  |  | 
C[Si](Cn1cncn1)(c1ccc(Cl)cc1Cl)c1ccc(Cl)cc1Cl [bis(2,4-Dichlorophenyl)(methyl)(1H-1,2,4-triazol-1-ylmethyl)silane] | 80 | 100 | G | 100 | 100 | 100 | 0 | 0 | 0 |  |  |  |  |  |  |  | 
O[Si](Cn1cnnc1)(c1ccc(Cl)cc1)c1ccc(Cl)cc1 [bis(4-Chlorophenyl)hydroxy(4H-1,2,4-triazol-4-ylmethyl)silane] | 80 | 90 |  | 100 | 100 | 100 | 0 | 0 | 0 |  |  |  |  |  |  |  | 
Clc1ccc([Si](Cn2cncn2)(c2ccc(Cl)cc2)c2ccc(Cl)cc2)cc1 [tris(4-Chlorophenyl)(1H-1,2,4-triazol-1-ylmethyl)silane] | 0 | 40 |  | 100 | 0 | 0 | 0 | 0 | 0 |  |  |  |  |  |  |  | 
Fc1ccc([Si](Cn2cncn2)(c2ccc(F)cc2)c2ccc(F)cc2)cc1 [tris(4-Fluorophenyl)(1H-1,2,4-triazol-1-ylmethyl)silane] | 0 | 90 |  | 0 | 60 | 90 | 0 | 0 | 0 |  |  |  |  |  |  |  | 
(1,1'-Biphenyl-4-yl)dimethyl(1H-1,2,4-triazol-1-ylmethyl)silane, 1:1 complex with zinc (II) chloride |  |  |  |  |  |  |  |  |  | 90 | 100 | 80 | 100 | 100 | 90 | 100 | 90
(1,1'-Biphenyl-4-yl)dimethyl(1H-1,2,4-triazol-1-ylmethyl)silane, 2:1 complex with cupric chloride |  |  |  |  |  |  |  |  |  | 80 | 100 | 100 | 100 | 100 | 80 | 0 | 0
